Laboratory results published in article PMC8815882, “Screening the pandemic response box identified benzimidazole carbamates, Olorofim and ravuconazole as promising drug candidates for the treatment of eumycetoma” (PLoS Neglected Tropical Diseases, 2022).
Where two headings read alike, the source gives them in different places.

System: M. mycetomatis genome strain MM55
Experiment: CLSI M38-A2 based in vitro susceptibility screening (XTT or resazurin), growth at fixed concentration
Assay type: cell-based, Madurella mycetomatis
Conditions: Madurella mycetomatis; for Percent fungal survival at 100 µM: replicate 2, M. mycetomatis MM55, read-out: Percentage survival at 100um, 100 uM A (second replicate column)
[1] = mean of replicates, read-out: Percentage survival at 25um, 25 uM mean
[2] = replicate A, read-out: Percentage survival at 25um, 25 um A
[3] = replicate B, read-out: Percentage survival at 25um, 25 uM B
[4] = replicate C, read-out: Percentage survival at 25um, 25 uM C
[5] = mean of replicates, read-out: Percentage survival at 100um, 100 uM mean
[6] = replicate 1, read-out: Percentage survival at 100um, 100 uM A
[7] = replicate 2, read-out: Percentage survival at 100um, 100 uM A
[8] = replicate 3, read-out: Percentage survival at 100um, 100 uM A
[9] = mean of three, M. mycetomatis MM55, read-out: Percentage survival at 25um, 25 uM mean
[10] = replicate A, M. mycetomatis MM55, read-out: Percentage survival at 25um, 25 um A
[11] = replicate B, M. mycetomatis MM55, read-out: Percentage survival at 25um, 25 uM B
[12] = replicate C, M. mycetomatis MM55, read-out: Percentage survival at 25um, 25 uM C
[13] = mean of three, M. mycetomatis MM55, read-out: Percentage survival at 100um, 100 uM mean
[14] = replicate 1, M. mycetomatis MM55, read-out: Percentage survival at 100um, 100 uM A (first replicate column)
[15] = replicate 3, M. mycetomatis MM55, read-out: Percentage survival at 100um, 100 uM A (third replicate column)
[16] = mean, read-out: Percentage survival at 25um, 25 uM mean
[17] = mean, read-out: Percentage survival at 100um, 100 uM mean
[18] = replicate (first column), read-out: Percentage survival at 100um, 100 uM A
[19] = replicate (second column), read-out: Percentage survival at 100um, 100 uM A
[20] = replicate (third column), read-out: Percentage survival at 100um, 100 uM A

Row | Compound | activity at 25 µM [1] | activity at 25 µM [2] | activity at 25 µM [3] | activity at 25 µM [4] | activity at 100 µM [5] | activity at 100 µM [6] | activity at 100 µM [7] | activity at 100 µM [8] | activity at 25 µM [9] | activity at 25 µM [10] | activity at 25 µM [11] | activity at 25 µM [12] | activity at 100 µM [13] | activity at 100 µM [14] | Percent fungal survival at 100 µM | activity at 25 µM [16] | activity at 100 µM [17] | activity at 100 µM [18] | activity at 100 µM [19] | activity at 100 µM [20] | also measured
1 | Nc1nc(-c2ccccc2)nc2c1ncn2[C@@H]1O[C@H](COS(=O)(=O)NC(=O)c2ccccc2O)[C@@H](O)[C@H]1O [MMV1582488] | 78% | 74.7% | 83.6% | 75.7% | 72.1% | 75.9% | 69.3% | 71.1% |  |  |  |  |  |  |  |  |  |  |  |  | 
2 | Cc1c[nH]c(=O)nc1NCc1ccccc1 [MMV1582489] | 93.3% | 97.9% | 91.7% | 90.3% | 88.7% | 101% | 80.8% | 84.5% |  |  |  |  |  |  |  |  |  |  |  |  | 
3 | CCc1cc(Cc2cnc(N)nc2N)cc2c1N(C)CCC2C (centres unmarked) [MMV1582490] | 67.6% | 71.5% | 64.7% | 66.5% | 69.5% | 63.4% | 83.5% | 61.6% |  |  |  |  |  |  |  |  |  |  |  |  | 
4 | O=C(CCCC(F)(F)F)N1CCC(c2nc(-c3nccs3)no2)CC1 [MMV1582491] |  |  |  |  |  |  |  |  | 73.3% | 68.8% | 80.7% | 70.4% | 72.9% | 57% | 67% |  |  |  |  |  | activity at 100 µM [15]: 94.8%
5 | Cc1nc(-c2ccc(C3N(C)c4ccc(F)cc4C(=O)N3c3ccccc3)s2)cs1 (centres unmarked) [MMV1582492] |  |  |  |  |  |  |  |  | 71% | 80% | 73.5% | 59.4% | 79.4% | 66.4% | 101% |  |  |  |  |  | activity at 100 µM [15]: 70.8%
6 | C[C@@H](NC(=O)c1ccccc1-c1ccccc1)B(O)O [MMV1582493] |  | 92.1% | 87.2% | 73.6% |  |  |  |  |  |  |  |  |  |  |  | 84.3% | 83.3% | 92.5% | 73.6% | 83.9% | 
7 | C[C@@H](O)[C@H](N)C(=O)NS(=O)(=O)c1cccc(-c2ccc3[nH]ncc3c2)c1 [MMV1582494] |  | 91.3% | 83.3% | 72.6% |  |  |  |  |  |  |  |  |  |  |  | 82.4% | 79.4% | 99.3% | 66.8% | 72.1% | 
8 | C(=C\c1nc2ccccc2[nH]1)/c1ccc2c(c1)OCO2 [MMV1582495] |  |  |  |  |  |  |  |  | 76.5% | 78.1% | 81.8% | 69.8% | 66.2% | 59.7% | 74.5% |  |  |  |  |  | activity at 100 µM [15]: 64.2%
9 | CC(C)c1ccc(COc2cccc(-c3cc([S+](C)[O-])c(C#N)c(=O)[nH]3)c2)cc1 (centres unmarked) [MMV1582497] |  | 65% | 60.9% | 58.1% |  |  |  |  |  |  |  |  |  |  |  | 61.3% | 40.1% | 1.56% | 53.5% | 65.4% | 
10 | Cc1cc(Nc2ccc(F)cc2)nc(SCc2nc3ccccc3[nH]2)n1 [MMV1582498] |  | 99.7% | 99% | 80.1% |  |  |  |  |  |  |  |  |  |  |  | 92.9% | 45% | 67.6% | 17.6% | 49.8% | 
